Test results published in patent publication US20240287122A1, “NOVEL GALACTOSIDE INHIBITOR OF GALECTINS” (GALECTO BIOTECH AB, priority 2020, published 2024).

What was measured:
Galectin-1 = Galectin-1 (Homo sapiens, UniProt P09382); assay: Fluorescence anisotropy assay, affinity for galectin-1; assay type: binding; conditions: compound as inhibitor of the interaction between galectin and a fluorescein tagged saccharide probe
Procedure: (§1) The affinity of Example 1-43 for galectins were determined by a fluorescence anisotropy assay where the compound was used as an inhibitor of the interaction between galectin and a fluorescein tagged saccharide probe as described Sörme, P., Kahl-Knutsson, B., Huflejt, M., Nilsson, U. J., and Leffler H. (2004) Fluorescence polarization as an analytical tool to evaluate galectin-ligand interactions. Anal. Biochem. 334: 36-47, (Sörme et al., 2004) and Monovalent interactions of Galectin-1 By Salomonsson, Emma; Larumbe, Amaia; Tejler, Johan; Tullberg, Erik; Rydberg, Hanna; Sundin, Anders; Khabut, Areej; Frejd, Torbjomn; Lobsanov, Yuri D.; Rini, James M.; et al, From Biochemistry (2010), 49(44), 9518-9532, (Salomonsson et al., 2010).

Galectin-3 = Galectin-3 (Homo sapiens, UniProt P17931); assay: Fluorescence anisotropy assay, affinity for galectin-3; assay type: binding; conditions: compound as inhibitor of the interaction between galectin and a fluorescein tagged saccharide probe
Sequence of Galectin-3 (P17931 whole entry): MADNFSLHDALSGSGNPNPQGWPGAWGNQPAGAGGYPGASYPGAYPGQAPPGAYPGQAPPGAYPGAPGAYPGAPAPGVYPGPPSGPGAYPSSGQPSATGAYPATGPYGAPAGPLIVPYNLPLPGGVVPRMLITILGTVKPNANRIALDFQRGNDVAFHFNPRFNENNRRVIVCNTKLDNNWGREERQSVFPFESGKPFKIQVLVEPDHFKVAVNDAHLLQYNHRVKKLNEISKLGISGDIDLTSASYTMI
Procedure: as §1

Sequence of Galectin-1 (P09382 whole entry): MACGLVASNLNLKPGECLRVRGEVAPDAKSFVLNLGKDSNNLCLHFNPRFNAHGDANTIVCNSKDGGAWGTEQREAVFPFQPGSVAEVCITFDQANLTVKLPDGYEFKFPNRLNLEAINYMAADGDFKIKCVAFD

Row | SMILES | Kd (Galectin-1) [nM] | Kd (Galectin-3) [nM]
1 | CNC(=O)c1ccc(Br)cc1S[C@H]1OC(CO)[C@H](O)C(n2cc(-n3ccc(Cl)n3)nn2)C1OC (stereo partly drawn) [Example 1, 5-Bromo-2-(N-methyl-carbonyl)phenyl 3-[4-(3-chloro-1H-1,2-pyrazol-1-yl)-1H-1,2,3-triazol-1-yl]-3-deoxy-2-O-methyl-1-thio-α-D-galactopyranoside] | 57 | 160
2 | OCC1O[C@H](Sc2cncc(Cl)c2)C(O)C(n2cc(-n3ccc(F)n3)nn2)[C@H]1O (stereo partly drawn) [Example 4, 5-Chloropyridin-3-yl 3-deoxy-3-[4-(3-fluoro-1H-1,2-pyrazol-1-yl)-1H-1,2,3-triazol-1-yl]-1-thio-α-D-galactopyranoside] | 1700 | 360
3 | OCC1O[C@H](Sc2cncc(Cl)c2)C(O)C(n2cc(-n3ccc(Cl)n3)nn2)[C@H]1O (stereo partly drawn) [Example 5, 5-Chloropyridin-3-yl 3-[4-(3-chloro-1H-1,2-pyrazol-1-yl)-1H-1,2,3-triazol-1-yl]-3-deoxy-1-thio-α-D-galactopyranoside] | 500 | 310
4 | COC1C(n2cc(-n3ccc(Cl)n3)nn2)[C@@H](O)C(CO)O[C@@H]1Sc1cc(Cl)cnc1C(F)(F)F (stereo partly drawn) [Example 6, 5-Chloro-2-(trifluoromethyl)pyridin-3-yl 3-[4-(3-chloro-1H-1,2-pyrazol-1-yl)-1H-1,2,3-triazol-1-yl]-3-deoxy-2-O-methyl-1-thio-α-D-galactopyranoside] | 200 | 270
5 | COC1C(n2cc(-n3ccc(Cl)n3)nn2)[C@@H](O)C(CO)O[C@@H]1Sc1cnc(C(F)(F)F)c(Cl)c1 (stereo partly drawn) [Example 8, 3-Chloro-2-(trifluoromethyl)pyridin-5-yl 3-[4-(3-chloro-1H-1,2-pyrazol-1-yl)-1H-1,2,3-triazol-1-yl]-3-deoxy-2-O-methyl-1-thio-α-D-galactopyranoside] | 360 | 540
6 | COC1C(n2cc(-n3ccc(Cl)n3)nn2)[C@@H](O)C(CO)O[C@@H]1Sc1cnc(C(F)(F)F)c(Br)c1 (stereo partly drawn) [Example 9, 3-Bromo-2-(trifluoromethyl)pyridin-5-yl 3-[4-(3-chloro-1H-1,2-pyrazol-1-yl)-1H-1,2,3-triazol-1-yl]-3-deoxy-2-O-methyl-1-thio-α-D-galactopyranoside] | 210 | 390
7 | COC1C(n2cc(-n3ccc(Cl)n3)nn2)[C@@H](O)C(CO)O[C@@H]1Sc1cc(Br)cnc1C(=O)N(CC(C)C)CC(C)C (stereo partly drawn) [Example 20, 5-Bromo-2-(N,N-diisobutylcarbamoyl)pyridin-3-yl 3-[4-(3-chloro-1H-1,2-pyrazol-1-yl)-1H-1,2,3-triazol-1-yl]-3-deoxy-2-O-methyl-1-thio-α-D-galactopyranoside] | 360 | 360
8 | COC1C(n2cc(-n3ccc(Cl)n3)nn2)[C@@H](O)C(CO)O[C@@H]1Sc1cc(Br)cnc1C(=O)N(C)CC(C)(C)F (stereo partly drawn) [Example 22, 5-Bromo-2-[N,N-(2-fluoro-2-methylpropyl)methylcarbamoyl]pyridin-3-yl 3-[4-(3-chloro-1H-1,2-pyrazol-1-yl)-1H-1,2,3-triazol-1-yl]-3-deoxy-2-O-methyl-1-thio-α-D-galactopyranoside] | 98 | 76
9 | CCN(C(=O)c1ncc(Br)cc1S[C@H]1OC(CO)[C@H](O)C(n2cc(-n3ccc(Cl)n3)nn2)C1OC)C(C)(C)C (stereo partly drawn) [Example 23, 5-Bromo-2-[N,N-(tert-butyl)ethylcarbamoyl]pyridin-3-yl 3-[4-(3-chloro-1H-1,2-pyrazol-1-yl)-1H-1,2,3-triazol-1-yl]-3-deoxy-2-O-methyl-1-thio-α-D-galactopyranoside] | 87 | 72
10 | COC1C(n2cc(-n3ccc(Cl)n3)nn2)[C@@H](O)C(CO)O[C@@H]1Sc1cc(Br)cnc1C(=O)N(CC1CC1)CC1CC1 (stereo partly drawn) [Example 24, 5-Bromo-2-[N,N-bis(cyclopropylmethyl)carbamoyl]pyridin-3-yl 3-[4-(3-chloro-1H-1,2-pyrazol-1-yl)-1H-1,2,3-triazol-1-yl]-3-deoxy-2-O-methyl-1-thio-α-D-galactopyranoside] | 120 | 83

Now from value to compound:

Row | Kd (Galectin-1) [nM] | Kd (Galectin-3) [nM] | SMILES
11 | 85 | 130 | COC1C(n2cc(-n3ccc(Cl)n3)nn2)[C@@H](O)C(CO)O[C@@H]1Sc1cc(Br)ccc1C#N (stereo partly drawn) [Example 2, 5-Bromo-2-cyanophenyl 3-[4-(3-chloro-1H-1,2-pyrazol-1-yl)-1H-1,2,3-triazol-1-yl]-3-deoxy-2-O-methyl-1-thio-α-D-galactopyranoside]
12 | 130 | 120 | COC1C(n2cc(-n3ccc(Cl)n3)nn2)[C@@H](O)C(CO)O[C@@H]1Sc1cc(Br)cnc1C#N (stereo partly drawn) [Example 3, 5-Bromo-2-cyanopyridin-3-yl 3-[4-(3-chloro-1H-1,2-pyrazol-1-yl)-1H-1,2,3-triazol-1-yl]-3-deoxy-2-O-methyl-1-thio-α-D-galactopyranoside]
13 | 150 | 210 | COC1C(n2cc(-n3ccc(Cl)n3)nn2)[C@@H](O)C(CO)O[C@@H]1Sc1cc(Br)cnc1C(F)(F)F (stereo partly drawn) [Example 7, 5-Bromo-2-(trifluoromethyl)pyridin-3-yl 3-[4-(3-chloro-1H-1,2-pyrazol-1-yl)-1H-1,2,3-triazol-1-yl]-3-deoxy-2-O-methyl-1-thio-α-D-galactopyranoside]
14 | 54 | 73 | COC1C(n2cc(-n3ccc(Cl)n3)nn2)[C@@H](O)C(CO)O[C@@H]1Sc1cc(Br)cnc1C(=O)N(C)C (stereo partly drawn) [Example 10, 5-Bromo-2-(N,N-dimethylcarbamoyl)pyridin-3-yl 3-[4-(3-chloro-1H-1,2-pyrazol-1-yl)-1H-1,2,3-triazol-1-yl]-3-deoxy-2-O-methyl-1-thio-α-D-galactopyranoside]
15 | 520 | 420 | COC1C(n2cc(-n3cc(Cl)cn3)nn2)[C@@H](O)C(CO)O[C@@H]1Sc1cc(Br)cnc1C#N (stereo partly drawn) [Example 11, 5-Bromo-2-cyanopyridin-3-yl 3-[4-(4-chloro-1H-1,2-pyrazol-1-yl)-1H-1,2,3-triazol-1-yl]-3-deoxy-2-O-methyl-1-thio-α-D-galactopyranoside]
16 | 180 | 160 | COC1C(n2cc(-n3ccc(F)n3)nn2)[C@@H](O)C(CO)O[C@@H]1Sc1cc(Br)cnc1C#N (stereo partly drawn) [Example 12, 5-Bromo-2-cyanopyridin-3-yl 3-deoxy-3-[4-(3-fluoro-1H-1,2-pyrazol-1-yl)-1H-1,2,3-triazol-1-yl]-2-O-methyl-1-thio-α-D-galactopyranoside]
17 | 180 | 1700 | COC1C(n2cc(-n3cc(F)cn3)nn2)[C@@H](O)C(CO)O[C@@H]1Sc1cc(Br)cnc1C#N (stereo partly drawn) [Example 13, 5-Bromo-2-cyanopyridin-3-yl 3-deoxy-3-[4-(4-fluoro-1H-1,2-pyrazol-1-yl)-1H-1,2,3-triazol-1-yl]-2-O-methyl-1-thio-α-D-galactopyranoside]
18 | 180 | 1400 | COC1C(n2cc(-n3ccc(C)n3)nn2)[C@@H](O)C(CO)O[C@@H]1Sc1cc(Br)cnc1C#N (stereo partly drawn) [Example 14, 5-Bromo-2-cyanopyridin-3-yl 3-deoxy-3-[4-(3-methyl-1H-1,2-pyrazol-1-yl)-1H-1,2,3-triazol-1-yl]-2-O-methyl-1-thio-α-D-galactopyranoside]
19 | 890 | 4300 | COC1C(n2cc(-n3nccc3C)nn2)[C@@H](O)C(CO)O[C@@H]1Sc1cc(Br)cnc1C#N (stereo partly drawn) [Example 15, 5-Bromo-2-cyanopyridin-3-yl 3-deoxy-3-[4-(5-methyl-1H-1,2-pyrazol-1-yl)-1H-1,2,3-triazol-1-yl]-2-O-methyl-1-thio-α-D-galactopyranoside]
20 | 350 | 400 | COC1C(n2cc(-n3nc(Cl)cc3C)nn2)[C@@H](O)C(CO)O[C@@H]1Sc1cc(Br)cnc1C#N (stereo partly drawn) [Example 16, 5-Bromo-2-cyanopyridin-3-yl 3-[4-(3-chloro-5-methyl-1H-1,2-pyrazol-1-yl)-1H-1,2,3-triazol-1-yl]-3-deoxy-2-O-methyl-1-thio-α-D-galactopyranoside]
21 | 2000 | 560 | COC1C(n2cc(-n3nc(C(F)(F)F)cc3Cl)nn2)[C@@H](O)C(CO)O[C@@H]1Sc1cc(Br)cnc1C#N (stereo partly drawn) [Example 17, 5-Bromo-2-cyanopyridin-3-yl 3-{4-[5-chloro-3-(trifluoromethyl)-1H-1,2-pyrazol-1-yl]-1H-1,2,3-triazol-1-yl}-3-deoxy-2-O-methyl-1-thio-α-D-galactopyranoside]
22 | 350 | 41 | COC1C(n2cc(-n3cc(C)c(Cl)n3)nn2)[C@@H](O)C(CO)O[C@@H]1Sc1cc(Br)cnc1C#N (stereo partly drawn) [Example 18, 5-Bromo-2-cyanopyridin-3-yl 3-[4-(3-chloro-4-methyl-1H-1,2-pyrazol-1-yl)-1H-1,2,3-triazol-1-yl]-3-deoxy-2-O-methyl-1-thio-α-D-galactopyranoside]
23 | 110 | 92 | CCN(C(=O)c1ncc(Br)cc1S[C@H]1OC(CO)[C@H](O)C(n2cc(-n3ccc(Cl)n3)nn2)C1OC)C(C)C (stereo partly drawn) [Example 19, 5-Bromo-2-(N,N-ethylisopropylcarbamoyl)pyridin-3-yl 3-[4-(3-chloro-1H-1,2-pyrazol-1-yl)-1H-1,2,3-triazol-1-yl]-3-deoxy-2-O-methyl-1-thio-α-D-galactopyranoside]
24 | 100 | 100 | CCN(CC1CC1)C(=O)c1ncc(Br)cc1S[C@H]1OC(CO)[C@H](O)C(n2cc(-n3ccc(Cl)n3)nn2)C1OC (stereo partly drawn) [Example 21, 5-Bromo-2-[N,N-(cyclopropylmethyl)ethylcarbamoyl]pyridin-3-yl 3-[4-(3-chloro-1H-1,2-pyrazol-1-yl)-1H-1,2,3-triazol-1-yl]-3-deoxy-2-O-methyl-1-thio-α-D-galactopyranoside]
